3 compounds from article PMC7558522, “Click-Free Synthesis of a Multivalent Tricyclic Peptide as a Molecular Transporter” (Pharmaceutics, 2020) can be followed below.

One data set relates to MRSA (LAC Clone). In words: microbe, parasite or virus in culture. Type of data set: cell-based, Methicillin-resistant Staphylococcus aureus. As for the experimental part:
(§1) The selected strains of bacteria, MRSA (Los Angeles County (LAC) clone), E. coli (ATCC 25922), Pseudomonas aeruginosa (ATCC 27883), and Klebsiella pneumoniae (ATCC BAA 1705) were cultured according to the guidelines of the Clinical Laboratory Standards Institute (CLSI) guidelines. MIC values were determined using microbroth dilution assay. Tricyclic peptide 20 was used to evaluate antibacterial activity in comparison to positive controls, such as Meropenem for Gram-negative bacteria and c[R4W4] for Gram-positive bacteria. Bacterial strains were inoculated into LB (5 mL) and shaken in an orbital shaker at 175 rpm overnight at 37 °C. The cultured suspension was immediately diluted to get turbidity of 0.5 McFarland (1.5 × 10^8 bacterial cell CFU/mL) using normal saline. The test compounds (tricyclic peptide 20, Meropenem, and c[R4W4]) were dissolved in 5% dimethyl sulfoxide (DMSO) to generate 256 µg/mL solutions. 200 µL of tricyclic peptide 20, and controls were added to the first column of the 96 well plates, and a twofold serial dilution was performed with the addition of 100 µL of bacterial culture media to the other wells. […] Bacterial solution (100 µL) was added to all the wells and incubated statically at 37 °C overnight. The minimum concentration at which bacterial growth was not visible to eyes were reported as MICs and experiments were performed in triplicate.

Data set [1] relates to Klebsiella pneumoniae (ATCC BAA 1705). Put plainly: microbe, parasite or virus in culture. Type of data set: cell-based. As for the experimental part: as §1
Data set [2] has as its system Pseudomonas aeruginosa (ATCC 27883). Put plainly: microbe, parasite or virus in culture. Type of data set: cell-based. On the procedure: as §1
For another data set, the system named is E. coli (ATCC 25922). Put plainly: microbe, parasite or virus in culture. The format is cell-based, Escherichia coli. On the procedure:
as §1

Data set [3] concerns MRSA, Klebsiella pneumoniae, Pseudomonas aeruginosa, and E. coli. The format is cell-based. The note with it: range over the four strains, microbroth dilution. As for the experimental part:
as §1

The next data set has as its system MDA-MB-231 cells. The format is cell-based, Human. On the procedure:
Human breast cancer (MDA-MB-231) cell line was grown on 75 cm^2 cell culture flasks with Dulbecco’s modified eagle’s medium (DMEM) medium, supplemented with 10% fetal bovine serum (FBS), and 1% penicillin-streptomycin solution (10,000 units of penicillin and 10 mg of streptomycin in 0.9% NaCl) in a humidified atmosphere of 5% CO2, 95% air at 37 °C. CellTiter 96® Aqueous (Promega, Madison, WI, USA) one solution cell proliferation assay (MTS) was utilized to evaluate MDA-MB-231 cell viability. Cells were seeded into 96-well plate (10^4 cells/100 μL) in complete media and incubated overnight at 37 °C with 5% CO2. Different concentrations (0−300 μM) of the peptide solution (10 μL) were added to wells to make the final concentrations of the peptide (0−30 μM). The cells were incubated again (37 °C, 5% CO2) for 24 h, then MTS reagent (20 μL) was added to each well followed by incubation for 2 h under the same condition. The absorbance of the resulting solution was evaluated at 490 nm using a microplate reader to detect the live cells. Cells without peptide were considered as a control. DMSO (30% v/v) was used as a positive control. The compound was used in aqueous solution. All the tests were performed in triplicate.

SMILES strings stand for the structures. In brackets after ≈: the same amount, converted by molar mass. Read-outs that look alike come from different tables or passages of the source. *1 amine or outer side, *2 acyl side, *3 side chain or, on linkers, in order; H or OH if unused. Where a SMILES comes first, the peptide text is derived from it. Bridges are numbered along the chain shown (N, C = ends). Roman numbers before positions name the chains, in order. Suc = O=C(CCC(=O)[*:2])[*:1]

As to `N=C(N)NCCC[C@@H]1NC(=O)[C@H](CCCNC(=N)N)NC(=O)[C@H](CCCNC(=N)N)NC(=O)[C@H](Cc2c[nH]c3ccccc23)NC(=O)[C@H](Cc2c[nH]c3ccccc23)NC(=O)[C@H](Cc2c[nH]c3ccccc23)NC(=O)[C@H](Cc2c[nH]c3ccccc23)NC(=O)[C@H](CCCNC(=N)N)NC1=O` [c[R4W4]] (cyclo(RRRRWWWW)), the MIC in the data set on MRSA (LAC Clone) (LAC Clone) is given as 4 µg/mL (≈ 2.92 µM); in data set [1] (ATCC BAA 1705), 32 µg/mL (≈ 23.4 µM); in data set [2] (ATCC 27883) it was 64 µg/mL (≈ 46.7 µM); in the data set on E. coli (ATCC 25922) (ATCC 25922), 16 µg/mL (≈ 11.7 µM).

For `C[C@@H](O)[C@H]1C(=O)N2C(C(=O)O)=C(S[C@@H]3CN[C@H](C(=O)N(C)C)C3)[C@H](C)[C@H]12` [Meropenem], the MIC in the data set with MRSA (LAC Clone) (Staphylococcus aureus, MRSA, microbroth dilution, incubated overnight at 37 °C, growth not visible to eyes, performed in triplicate, read-out: MIC) was 4 µg/mL (≈ 10.4 µM); in data set [1] (Klebsiella pneumoniae, BAA1705, microbroth dilution, incubated overnight at 37 °C, growth not visible to eyes, performed in triplicate, read-out: MIC), 32 µg/mL (≈ 83.4 µM); in data set [2] (Pseudomonas aeruginosa, ATCC27883, microbroth dilution, incubated overnight at 37 °C, growth not visible to eyes, performed in triplicate, read-out: MIC), 1 µg/mL (≈ 2.61 µM); in the data set on E. coli (ATCC 25922) (Escherichia coli, ATCC25922, microbroth dilution, incubated overnight at 37 °C, growth not visible to eyes, performed in triplicate, read-out: MIC) it was 8 µg/mL (≈ 20.9 µM).

For the compound `N=C(N)NCCC[C@@H]1NC(=O)[C@H](Cc2c[nH]c3ccccc23)NC(=O)[C@H](CCCNC(=N)N)NC(=O)[C@H](Cc2c[nH]c3ccccc23)NC(=O)[C@H](CCCCNC(=O)CCC(=O)NCCCC[C@@H]2NC(=O)[C@H](CCCNC(=N)N)NC(=O)[C@H](Cc3c[nH]c4ccccc34)NC(=O)[C@H](CCCNC(=N)N)NC(=O)[C@H](Cc3c[nH]c4ccccc34)NC(=O)[C@H](CCCNC(=N)N)NC(=O)[C@H](Cc3c[nH]c4ccccc34)NC(=O)[C@H](CCCNC(=N)N)NC(=O)[C@H](Cc3c[nH]c4ccccc34)NC2=O)NC(=O)[C@H](CCCNC(=N)N)NC(=O)[C@H](Cc2c[nH]c3ccccc23)NC(=O)[C@H](CCCNC(=N)N)NC(=O)[C@H](Cc2c[nH]c3ccccc23)NC(=O)[C@H](CCCCNC(=O)CCC(=O)NCCCC[C@@H]2NC(=O)[C@H](CCCNC(=N)N)NC(=O)[C@H](Cc3c[nH]c4ccccc34)NC(=O)[C@H](CCCNC(=N)N)NC(=O)[C@H](Cc3c[nH]c4ccccc34)NC(=O)[C@H](CCCNC(=N)N)NC(=O)[C@H](Cc3c[nH]c4ccccc34)NC(=O)[C@H](CCCNC(=N)N)NC(=O)[C@H](Cc3c[nH]c4ccccc34)NC2=O)NC1=O` [Tricyclic peptide 20] (I: cyclo(KWRWRKWRWR) / II: cyclo(KWRWRWRWR) / III: cyclo(KWRWRWRWR); linker I:1-III:1, I:6-II:1 via Suc), the MIC is 64 µg/mL (≈ 13.4 µM) in the data set with MRSA (LAC Clone) (LAC Clone), 128 µg/mL (≈ 26.7 µM) in data set [1] (ATCC BAA 1705), 128 µg/mL (≈ 26.7 µM) in data set [2] (ATCC 27883) and 64 µg/mL (≈ 13.4 µM) in the data set with E. coli (ATCC 25922) (ATCC 25922). For the same compound, the “MIC (range over MRSA, K. pneumoniae, P. aeruginosa, E. coli)” value in data set [3] is 64 to 128 µg/mL. The cell viability entry in the data set with MDA-MB-231 cells (25 µM) is “more than 97%”; in the data set on MDA-MB-231 cells (30 µM) it was 92%.

What is called cell viability is a per cent measure of how many cells are alive, often set against a control. A low value points to a greater loss of cells.
